Test results published in ChEMBL document CHEMBL2074518, “Multiple systems for the biliary excretion of organic anions in rats: liquiritigenin conjugates as model compounds” (J Pharmacol Exp Ther, 1994).

Tests used:
[1] = biological target: T1, ATP-binding cassette sub-family C member 2 (Rattus norvegicus, UniProt Q63120); assay: TP_TRANSPORTER: biliary excretion in SD rat; format: functional, organism-based, Sprague-Dawley, Bile; conditions: in vivo
[2] = biological target: T1, ATP-binding cassette sub-family C member 2; assay: TP_TRANSPORTER: biliary excretion in EHBR rat; format: functional, organism-based, Bile; conditions: in vivo

T1 sequence (Q63120 whole entry): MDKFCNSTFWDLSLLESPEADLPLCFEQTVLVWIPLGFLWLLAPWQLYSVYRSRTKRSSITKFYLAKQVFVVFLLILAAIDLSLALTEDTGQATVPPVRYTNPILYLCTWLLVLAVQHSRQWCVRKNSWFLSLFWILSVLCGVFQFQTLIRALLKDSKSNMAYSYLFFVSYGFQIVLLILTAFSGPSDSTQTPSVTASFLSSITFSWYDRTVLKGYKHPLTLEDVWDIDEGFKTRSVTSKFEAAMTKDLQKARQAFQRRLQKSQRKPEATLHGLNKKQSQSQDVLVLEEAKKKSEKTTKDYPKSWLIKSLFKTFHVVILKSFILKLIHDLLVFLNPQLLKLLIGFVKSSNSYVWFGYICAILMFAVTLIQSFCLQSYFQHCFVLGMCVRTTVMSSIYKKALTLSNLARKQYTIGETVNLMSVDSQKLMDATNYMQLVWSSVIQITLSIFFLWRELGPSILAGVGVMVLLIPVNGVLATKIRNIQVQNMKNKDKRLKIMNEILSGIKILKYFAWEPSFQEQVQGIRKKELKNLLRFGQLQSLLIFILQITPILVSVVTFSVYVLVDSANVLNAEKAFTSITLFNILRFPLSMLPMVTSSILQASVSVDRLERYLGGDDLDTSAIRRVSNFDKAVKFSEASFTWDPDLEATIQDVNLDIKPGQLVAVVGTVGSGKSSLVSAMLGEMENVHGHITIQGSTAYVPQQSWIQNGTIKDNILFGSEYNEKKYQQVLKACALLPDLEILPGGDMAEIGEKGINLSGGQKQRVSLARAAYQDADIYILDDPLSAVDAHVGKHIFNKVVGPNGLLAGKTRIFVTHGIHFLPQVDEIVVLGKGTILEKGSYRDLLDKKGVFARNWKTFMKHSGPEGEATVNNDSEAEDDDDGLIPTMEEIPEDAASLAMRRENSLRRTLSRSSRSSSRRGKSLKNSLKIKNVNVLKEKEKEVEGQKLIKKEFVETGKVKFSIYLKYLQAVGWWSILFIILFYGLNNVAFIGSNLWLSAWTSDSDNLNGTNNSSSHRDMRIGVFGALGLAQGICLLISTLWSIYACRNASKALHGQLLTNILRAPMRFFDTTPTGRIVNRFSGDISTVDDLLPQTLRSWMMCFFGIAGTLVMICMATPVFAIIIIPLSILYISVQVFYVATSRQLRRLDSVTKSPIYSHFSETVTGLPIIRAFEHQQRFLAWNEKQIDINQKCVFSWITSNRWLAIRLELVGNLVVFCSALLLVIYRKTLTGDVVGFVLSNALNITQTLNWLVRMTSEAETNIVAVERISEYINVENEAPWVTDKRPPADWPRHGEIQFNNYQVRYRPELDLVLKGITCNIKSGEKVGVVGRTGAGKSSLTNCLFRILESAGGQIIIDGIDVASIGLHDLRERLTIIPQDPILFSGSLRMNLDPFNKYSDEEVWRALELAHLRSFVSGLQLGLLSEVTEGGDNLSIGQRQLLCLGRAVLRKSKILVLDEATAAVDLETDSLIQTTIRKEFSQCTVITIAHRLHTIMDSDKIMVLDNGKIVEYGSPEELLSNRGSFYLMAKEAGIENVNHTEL

In the case of `O=C1CC(c2ccc(O[C@@H]3O[C@H](C(=O)O)[C@@H](O)[C@H](O)[C@H]3O)cc2)Oc2cc(O)ccc21` (some centres not stated) [LIQUIRTIGENIN GLUCURONIDE], the Activity [1] is reported as “substrate [+]” and the Activity [2] is reported as “substrate [+]”.
